The source of these data is patent US8648066B2 (Exelixis, Inc., priority 2009, dated 2014).

The experiment deals with mTOR/GbL/Raptor (mTORC1) (Homo sapiens, UniProt P42345). As to the kind of experiment: mTOR/GbL/Raptor (mTORC1) ELISA assay. The class given is biochemical. Conditions: phosphorylation of 4E-BP1; 0.2 nM mTORC1, 10 μM ATP; read-out: IC50 in this assay (mTORC1 ELISA). In short, it runs like this:
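ELISA read-out: phospho-4E-BP1 captured on Ni-chelate plates and detected with anti-phospho antibody plus HRP-anti-IgG luminescence. The kinase step ran 120 min at ambient temperature with 0.2 nM human mTORC1, 10 µM ATP, 50 nM His-4E-BP1, 10 mM MnCl2, pH 7.2 HEPES.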
Consider `COc1ccc2c(N3CCOc4ccc(-c5cnc(N)s5)cc4C3)nc(C)nc2c1` [Example 292, 5-{4-[2-methyl-7-(methyloxy)quinazolin-4-yl]-2,3,4,5-tetrahydro-1,4-benzoxazepin-7-yl}-1,3-thiazol-2-amine], for which the IC50 was 50 to 250 nM.

Regarding `COc1ccc2c(N3CCOc4ccc(-c5cnc(NC(C)=O)s5)cc4C3)nc(C)nc2c1` [Example 293, N-(5-{4-[2-methyl-7-(methyloxy)quinazolin-4-yl]-2,3,4,5-tetrahydro-1,4-benzoxazepin-7-yl}-1,3-thiazol-2-yl)acetamide], the IC50 was ≥ 2000 nM.

Take `CCNc1nc2ccc(-c3ccc4c(c3)CN(c3nc(C)nc5cc(F)ccc35)CCO4)cc2[nH]1` [Example 295, N-ethyl-6-[4-(7-fluoro-2-methylquinazolin-4-yl)-2,3,4,5-tetrahydro-1,4-benzoxazepin-7-yl]-1H-benzimidazol-2-amine]: the IC50 is 50 to 250 nM.

As to `COc1ccc2c(N3CCOc4ccc(-c5ccc6[nH]c(=O)[nH]c6c5)cc4C3)nc(C)nc2c1` [Example 296, 5-{4-[2-methyl-7-(methyloxy)quinazolin-4-yl]-2,3,4,5-tetrahydro-1,4-benzoxazepin-7-yl}-1,3-dihydro-2H-benzimidazol-2-one], the IC50 is ≥ 2000 nM.

For the compound `CC[C@H]1CCc2c(ncnc2N2CCOc3ccc(-c4cnc5nc([C@@H](C)N)[nH]c5c4)cc3C2)C1` [Example 297, (1R)-1-(6-{4-[(7S)-7-ethyl-5,6,7,8-tetrahydroquinazolin-4-yl]-2,3,4,5-tetrahydro-1,4-benzoxazepin-7-yl}-1H-imidazo[4,5-b]pyridin-2-yl)ethanamine], the IC50 fell in the range of 50 to 250 nM.

`CC[C@H]1CCc2c(ncnc2N2CCOc3ccc(-c4cnc5nc([C@H](C)N)[nH]c5c4)cc3C2)C1` [Example 298, (1S)-1-(6-{4-[(7S)-7-ethyl-5,6,7,8-tetrahydroquinazolin-4-yl]-2,3,4,5-tetrahydro-1,4-benzoxazepin-7-yl}-1H-imidazo[4,5-b]pyridin-2-yl)ethanamine]: the IC50 was in the range of 50 to 250 nM.

For the compound `C[C@H](CO)CS(=O)(=O)c1cc(-c2ccc3c(c2)CN(c2ncnc4c2CC(C)(C)CC4)CCO3)cnc1N` [Example 299, (2R)-3-({2-amino-5-[4-(6,6-dimethyl-5,6,7,8-tetrahydroquinazolin-4-yl)-2,3,4,5-tetrahydro-1,4-benzoxazepin-7-yl]pyridin-3-yl}sulfonyl)-2-methylpropan-1-ol], the IC50 fell in the range of 10 to 50 nM.

For the compound `CC[C@@H](C)NCc1nc2c(c(N3CCOc4ccc(-c5cnc6nc(C)[nH]c6c5)cc4C3)n1)CC(C)(C)CC2` [Example 300, (2R)-N-({6,6-dimethyl-4-[7-(2-methyl-1H-imidazo[4,5-b]pyridin-6-yl)-2,3-dihydro-1,4-benzoxazepin-4(5H)-yl]-5,6,7,8-tetrahydroquinazolin-2-yl}methyl)butan-2-amine], the IC50 fell in the range of 10 to 50 nM.

For the compound `C[C@@H](CO)CS(=O)(=O)c1cc(-c2ccc3c(c2)CN(c2ncnc4c2CC(C)(C)CC4)CCO3)cnc1N` [Example 301, (2S)-3-({2-amino-5-[4-(6,6-dimethyl-5,6,7,8-tetrahydroquinazolin-4-yl)-2,3,4,5-tetrahydro-1,4-benzoxazepin-7-yl]pyridin-3-yl}sulfonyl)-2-methylpropan-1-ol], the IC50 fell in the range of 10 to 50 nM.

In the case of `COc1ccc2c(N3CCOc4ccc(-c5cnc(N)c([S+]([O-])C[C@@H](C)CO)c5)cc4C3)ncnc2c1` (stereo partly drawn) [Example 302, (2S)-3-[(2-amino-5-{4-[7-(methyloxy)quinazolin-4-yl]-2,3,4,5-tetrahydro-1,4-benzoxazolin-7-yl}pyridin-3-yl)sulfinyl]-2-methylpropan-1-ol], the IC50 was in the range of 250 to 1000 nM.

In the case of `COc1ccc2c(N3CCOc4ccc(-c5cnc(N)c(S(=O)(=O)C[C@@H](C)CO)c5)cc4C3)ncnc2c1` [Example 303, (2S)-3-[(2-amino-5-{4-[7-(methyloxy)quinazolin-4-yl]-2,3,4,5-tetrahydro-1,4-benzoxazepin-7-yl}pyridin-3-yl)sulfonyl]-2-methylpropan-1-ol], the IC50 lay in the range of 250 to 1000 nM.

As to `CC[C@H](C)NCc1nc2c(c(N3CCOc4ccc(-c5cnc6nc(C)[nH]c6c5)cc4C3)n1)CC(C)(C)CC2` [Example 304, (2S)-N-({6,6-dimethyl-4-[7-(2-methyl-1H-imidazo[4,5-b]pyridin-6-yl)-2,3-dihydro-1,4-benzoxazepin-4(5H)-yl]-5,6,7,8-tetrahydroquinazolin-2-yl}methyl)butan-2-amine], the IC50 is ≤ 10 nM.

In the case of `CC1(C)CCc2ncnc(N3CCOc4ccc(-c5cnc(N)c(S(=O)(=O)N6CC[C@@H](O)C6)c5)cc4C3)c2C1` [Example 305, (3R)-1-({2-amino-5-[4-(6,6-dimethyl-5,6,7,8-tetrahydroquinazolin-4-yl)-2,3,4,5-tetrahydro-1,4-benzoxazepin-7-yl]pyridin-3-yl}sulfonyl)pyrrolidin-3-ol], the IC50 is 10 to 50 nM.

`CC1(C)CCc2ncnc(N3CCOc4ccc(-c5cnc(N6CC[C@H](N)C6)c(S(=O)(=O)N6CC[C@H](N)C6)c5)cc4C3)c2C1` [Example 306, (3S)-1-({2-[(3S)-3-aminopyrrolidin-1-yl]-5-[4-(6,6-dimethyl-5,6,7,8-tetrahydroquinazolin-4-yl)-2,3,4,5-tetrahydro-1,4-benzoxazepin-7-yl]pyridin-3-yl}sulfonyl)pyrrolidin-3-amine]: the IC50 was 250 to 1000 nM.

With `CC1(C)CCc2ncnc(N3CCOc4ccc(-c5cnc(Cl)c(S(=O)(=O)N6CC[C@H](N)C6)c5)cc4C3)c2C1` [Example 307, (3S)-1-({2-chloro-5-[4-(6,6-dimethyl-5,6,7,8-tetrahydroquinazolin-4-yl)-2,3,4,5-tetrahydro-1,4-benzoxazepin-7-yl]pyridin-3-yl}sulfonyl)pyrrolidin-3-amine], the IC50 was 250 to 1000 nM.

Consider `CC1(C)CCc2nc(CO)nc(N3CCOc4ccc(-c5cnc6sc(N)nc6c5)cc4C3)c2C1` [Example 308, {4-[7-(2-amino[1,3]thiazolo[5,4-b]pyridin-6-yl)-2,3-dihydro-1,4-benzoxazepin-4(5H)-yl]-6,6-dimethyl-5,6,7,8-tetrahydroquinazolin-2-yl}methanol], for which the IC50 is ≤ 10 nM.

In the case of `Cc1nc2ncc(-c3ccc4c(c3)CN(c3ncnc5c3CCC(CO)C5)CCO4)cc2[nH]1` (centres unmarked) [Example 309, {4-[7-(2-methyl-1H-imidazo[4,5-b]pyridin-6-yl)-2,3-dihydro-1,4-benzoxazepin-4(5H)-yl]-5,6,7,8-tetrahydroquinazolin-7-yl}methanol], the 50% inhibitory concentration (IC50) was in the range of 50 to 250 nM.

Regarding `Cc1nc2cc(-c3ccc4c(c3)CN(c3nc(CO)nc(C)c3Cc3ccc(F)cc3)CCO4)ccc2[nH]1` [Example 310, {5-[(4-fluorophenyl)methyl]-4-methyl-6-[7-(2-methyl-1H-benzimidazol-5-yl)-2,3-dihydro-1,4-benzoxazepin-4(5H)-yl]pyrimidin-2-yl}methanol], the IC50 was ≤ 10 nM.

Take `CC(=O)OCc1nc(C)c(Cc2ccc(F)cc2)c(N2CCOc3ccc(-c4ccc5[nH]c(C)nc5c4)cc3C2)n1` [Example 311, {5-[4(fluorophenyl)methyl]-4-methyl-6-[7-(2-methyl-1H-benzimidazol-5-yl)-2,3-dihydro-1,4-benzoxazepin-4(5H)-yl]pyrimidin-2-yl}methyl acetate]: the IC50 was ≤ 10 nM.

For the compound `Cc1nc2ncc(-c3ccc4c(c3)CN(c3nc(CO)nc5c3CC(C)(C)CC5)CCO4)cc2[nH]1` [Example 312, {6,6-dimethyl-4-[7-(2-methyl-1H-imidazo[4,5-b]pyridin-6-yl)-2,3-dihydro-1,4-benzoxazepin-4(5H)-yl]-5,6,7,8-tetrahydroquinazolin-2-yl}methanol], the IC50 was ≤ 10 nM.

For the compound `CC(=O)OCc1nc2c(c(N3CCOc4ccc(-c5cnc6nc(C)[nH]c6c5)cc4C3)n1)CC(C)(C)CC2` [Example 313, {6,6-dimethyl-4-[7-(2-methyl-1H-imidazo[4,5-b]pyridin-6-yl)-2,3-dihydro-1,4-benzoxazepin-4(5H)-yl]-5,6,7,8-tetrahydroquinazolin-2-yl}methyl acetate], the IC50 is ≤ 10 nM.

With `CC1(C)CCc2ncnc(N3CCOc4ccc(-c5cnc(N)c(S(=O)(=O)N6CC(O)(CO)C6)c5)cc4C3)c2C1` [Example 314, 1-({2-amino-5-[4-(6,6-dimethyl-5,6,7,8-tetrahydroquinazolin-4-yl)-2,3,4,5-tetrahydro-1,4-benbzoxazepin-7-yl]pyridin-3-yl}sulfonyl)-3-(hydroxymethyl)azetidin-3-ol], the IC50 was in the range of 10 to 50 nM.

In the case of `CC1(C)CCc2ncnc(N3CCOc4ccc(-c5cnc(N)c(S(=O)(=O)N6CC(O)C6)c5)cc4C3)c2C1` [Example 315, 1-({2-amino-5-[4-(6,6-dimethyl-5,6,7,8-tetrahydroquinazolin-4-yl)-2,3,4,5-tetrahydro-1,4-benzoxazepin-7-yl]pyridin-3-yl}sulfonyl)azetidin-3-ol], the IC50 is 10 to 50 nM.

Turning to `CC1(C)CCc2ncnc(N3CCOc4ccc(-c5cnc(N)c(S(=O)(=O)N6CCCC(O)C6)c5)cc4C3)c2C1` (centres unmarked) [Example 316], the IC50 is 10 to 50 nM.

As to `CC1(C)CCc2ncnc(N3CCOc4ccc(-c5cnc(N)c(S(=O)(=O)N6CCC(O)CC6)c5)cc4C3)c2C1` [Example 317, 1-({2-amino-5-[4-(6,6-dimethyl-5,6,7,8-tetrahydroquinazolin-4-yl)-2,3,4,5-tetrahydro-1,4-benzoxazepin-7-yl]pyridin-3-yl}sulfonyl)piperidin-4-ol], the IC50 is 50 to 250 nM.

Regarding `CC1(C)CCc2ncnc(N3CCOc4ccc(-c5cnc(N)c(S(=O)(=O)N6CCC(O)C6)c5)cc4C3)c2C1` (centres unmarked) [Example 318], the IC50 fell in the range of 10 to 50 nM.

Regarding `CN(C)Cc1nc2c(c(N3CCOc4ccc(-c5ccc6[nH]c(C(F)F)nc6c5)cc4C3)n1)CC(C)(C)CC2` [Example 320], the IC50 lay within 10 to 50 nM.

In the case of `Cc1nc(CN(C)C)nc(N2CCOc3ccc(-c4ccc5[nH]c(CF)nc5c4)cc3C2)c1Cc1ccc(F)cc1` [Example 321], the IC50 is ≤ 10 nM.

For `CN(C)Cc1nc2c(c(N3CCOc4ccc(-c5ccc6[nH]c(CF)nc6c5)cc4C3)n1)CC(C)(C)CC2` [Example 322], the IC50 lay in the range of 10 to 50 nM.
